The record followed here is patent publication US8106092B2, “Treatment of solid cancers” (priority 2004, dated 2012).

Data set [1] deals with B16 tumors. Kind of data set: Example 4: i.t. PEP005 on RHS primary B16 tumor with or without DC+IL-2, growth of LHS secondary tumor. In kind it is in vivo, C57BL/6 mice. An excerpt:
It has previously been established that PEP005-mediated curing of primary tumors can lead to the reduction secondary tumors in a B16-OVA lung metastasis and a s.c. Lewis lung-OVA model. These studies were extended (i) using a model where the model antigen ovalbumin is absent, (ii) using a system where both primary and secondary tumors are established before treatment initiation and (iii) using DC therapy combined with PEP005-mediated curing of primaries, to determine whether the two treatments can improve the anti-cancer effect on the secondary tumors.
[…], three groups of C57BL/6 mice were inoculated with 1×10^5 B16 s.c. on the right hand side of the back (RHS) and 2×10^4 s.c. on the left hand side of the back (LHS). A fourth group (Group 4) received only 2×10^4 s.c. on the left hand side of the back (LHS). On d0. the groups were given the following treatments:
PEP005 RHS: The larger RHS tumors were treated intra-tumorally with 25 μg PEP005 in 50 μl of 5% w/v DMSO in RPMI 1640 supplemented with HEPES 10 mM.
PEP005 RHS+DC+IL-2: The large RHS tumors were treated as for Group 1 plus the animals received on d0 DC2.4 cells (i) activated with LPS (for 3 hr incubation at 37° C. using 1 μg/ml E. coli 055:B5, Sigma), (ii) sensitized with TRP-2 peptide, SVYDFFVWL [SEQ ID NO:1] (30 μg/ml 2 hr, 37° C.), (iii) irradiated (5000 rads), washed and then injected i.v. (4×10^6/mouse iv) on d0. The animals also received rhIL-2 at 5×10^4 IU given twice daily per mouse from d0 to d4 i.p.
CONT TREAT RHS: Mock treatment group; the larger RHS tumors were treated intra-tumorally with 50 μl of 5% w/v DMSO in RPMI1640 supplemented with HEPES 10 mM.
NO RHS: This group had no RHS tumor and received no treatment.

For data set [2], the system named is B16 tumors. Kind of data set: Example 2: sub-optimal topical PEP005 combined with M720/B16 vaccination and DC+IL-2, cure of primary B16 tumors. In kind it is in vivo, C57BL/6 mice. The source says:
To determine whether PEP005 (ingenol-3-angelate) treatment could synergize with (i) vaccine-induced anti-cancer CD4^+ T-cells/antibodies and/or (ii) DC vaccine-induced anti-cancer CD8^+ T-cells, topical PEP005 treatment was combined with vaccination using (i) B16 lysate emulsified in Montanide ISA 720 adjuvant (M720/B16) and (ii) DC2.4 cells sensitized with TRP-2 peptide, SVYDFFVWL [SEQ ID NO:1] (a dominant CD8^+ T-cell epitope for anti-B16 CM^+ T-cells) and activated with LPS (Camporeale et al, Can Res 63:3688, 2003) (DC). The latter group also received IL-2 to maintain the vaccine induced T-cells. The topical PEP005 dose (10 μg/mouse) was known not to be sufficient to cure most B16 tumors of reasonable size. Thus, this experiment sought to determine whether improvements in B16 cure rate could be achieved when sub-optimal topical PEP005 treatment was combined with other immune-based therapies.
B16 tumors were injected 2×10^4 s.c. in groups (n=5 per group) of C57BL/6 mice and after 12 days (d0) had reached 8-12 mm^2 in size. The groups of animal received the following treatments:
PEP005: On d0, the tumors in this group were treated topically with PEP005, 10 μg/mouse in 10 μl isopropanol gel.
PEP005+M720: On d−5 (day minus 5), the animals had received Montanide ISA 720 adjuvant (M720) emulsified 7:3 v:v (Elliott et al, Vaccine. 17(15-16):2009-2019, 1999) with water (volume 100 μl/mouse s.c.) and on d0, the tumors in this group were treated topically with PEP005.
PEP005+M720/B16: On d−5, the animals had received Montanide ISA 720 adjuvant (M720) emulsified 7:3 v:v (Elliott et al, 1999 supra) with B16 cell lysate (3×10^5 B16 cells per mouse s.c., volume 100 μl/mouse) and on d0, the tumors in this group were treated topically with PEP005. A modality was known to induce CD4^+ T-cells specific for B16.
PEP005+M720/B16+DC+IL-2: On d0, the tumors in this group were treated topically with PEP005 and had been given M720/B16 as for Group 4. The group also received on d0 DC in the form of a DC cell line, DC2.4. These cells were (i) sensitized with TRP-2 peptide, SVYDFFVWL [SEQ ID NO:1] […]

Structures are written as SMILES.

For `C/C=C(/C)C(=O)O[C@H]1C(C)=C[C@]23C(=O)[C@@H](C=C(CO)[C@@H](O)[C@]12O)[C@H]1[C@@H](C[C@H]3C)C1(C)C` [PEP005, ingenol-3-angelate], the “tolerability of i.t. treatment” value in the data set with B16 tumors [1] (25 μg PEP005 in 50 μl of 5% w/v DMSO in RPMI 1640, i.t.) is “not well tolerated”. In the data set with B16 tumors [1] (i.t. 25 μg PEP005 on d0), the “RHS (primary) tumors successfully cured” value is listed as 5/6. Moreover, the “mice dying shortly after i.t. treatment” value in the data set with B16 tumors [1] (in each of Group 1 and 2 (n=7 each), PEP005 using DMSO) was “one”. Moreover, the “survival (deaths due to growth of LHS tumor) vs NO RHS group” value with B16 tumors [1] (mouse, in vivo) was “behaved essentially identically”. Further, the “growth of LHS (secondary) tumor d5 to d11 vs NO RHS” value with B16 tumors [1] (p=0.042) was “slower”. For the same compound, the “regression of treated tumors” value in the data set with B16 tumors [2] (all PEP005 treated tumors) is listed as “regressed by treatment to below detectable size”. The “day on which tumor became visible again / emerged” value in the data set with B16 tumors [2] (day (d) after treatment on d0, growth curves FIG. 7) is on record as 4-5. The “treated tumors re-emerging (failure rate)” value in the data set with B16 tumors [2] (topical 10 μg PEP005, combined PEP005/PEP005+M720 group n=10, tumors 8-12 mm^2) amounted to 90%.
